In assay [1] the target is T1, WT/WT nucleosomes (acidic patch) (Xenopus laevis, UniProt P02281+P06897+P62799).
T1 construct: made in house; host or cells: E. coli BL21 (DE3) pLysS
Description: Competition fluorescence anisotropy with LANA-TAMRA pre-bound to WT/WT nucleosomes. It is filed as binding, Xenopus laevis histones. Conditions: LANA-TAMRA 10 nM, WT/WT nucleosomes 100 nM, varying unlabeled ALC1^RLS peptide, 30°C; n = 3 independent experiments. How it is done: For binding studies, we used nucleosomes without linker DNA (WT/WT or APM/APM) as well as the following synthetic peptides (as detailed above): LANA peptide-TAMRA, ALC1^RLS peptide-TAMRA, and ALC1^RLS peptide. Fluorescence anisotropy measurements were carried out at 30°C using a CLARIOstar microplate reader (BMG Labtech). Binding curves were recorded in black low-volume 384-well assay plates (Corning). Individual wells contained 10 nM peptide and the indicated concentration of nucleosomes in 15 mM HEPES pH 7.5,1 mM EDTA, 5% glycerol, and 1 mM DTT. Dissociation constants were determined by fitting the fluorescence anisotropy data to the solution of a quadratic equation derived from the binding isotherm, which took into account depletion of peptide: r=αA+KD+B−A+KD+B^2−4AB , where r is the fluorescence anisotropy, A represents the total concentration of peptide, a is a scaling factor, KD is the dissociation constant, and B is the total concentration of titrated ligand. […]
For fluorescence anisotropy binding experiments, the reported values represent the mean ± SEM from 3 independent experiments. […] For ensemble nucleosome remodeling time courses, each experimental condition was recorded in 3 independent experiments, and representative remodeling time courses are shown. […]
In general terms: Fluorescence polarisation rises when a labelled molecule tumbles more slowly, as on binding a larger partner.

For assay [2], the system named is APM/APM nucleosomes (H2A E61A, E64A, D90A, E92A). Put plainly: Fluorescence anisotropy binding assay, APM/APM nucleosomes. Also noted: species or system Xenopus laevis histones. Conditions: 10 nM TAMRA-labeled peptide, 15 mM HEPES pH 7.5, 30°C, one representative curve of two independent experiments. An excerpt:
(§1) The DNA constructs used in the nucleosome assembly for single-molecule and ensemble remodeling studies comprised the Widom 601 nucleosome positioning sequence ([Lowary and Widom, 1998]) as well as either 3 bp or 12 bp of linker DNA on one side and 78 bp on the other side (for the single-molecule remodeling construct) or 63 bp of linker DNA on one side and no linker DNA on the other side (for the ensemble remodeling construct). All constructs were 5’-labeled with Cy5 on the short linker end. The constructs for single-molecule experiments additionally featured a biotin on the long linker end. […] The DNA constructs for the assembly of nucleosomes used in fluorescence anisotropy experiments and ATPase assays comprised the Widom 601 positioning sequence without additional linker DNA (for the fluorescence anisotropy construct) or 63 bp of linker DNA on one side and no linker DNA on the other side (for the ATPase assay construct). […]
For binding studies, we used nucleosomes without linker DNA (WT/WT or APM/APM) as well as the following synthetic peptides (as detailed above): LANA peptide-TAMRA, ALC1^RLS peptide-TAMRA, and ALC1^RLS peptide. Fluorescence anisotropy measurements were carried out at 30°C using a CLARIOstar microplate reader (BMG Labtech). Binding curves were recorded in black low-volume 384-well assay plates (Corning). […]

In assay [3] the test system is ALC1-catalyzed remodeling of WT/WT nucleosomes. Put plainly: Ensemble FRET nucleosome remodeling, WT/WT nucleosomes. Conditions: WT/WT nucleosomes 10 nM preincubated with 80 μM LANA peptide 5 min room temperature; 80 nM ALC1^fl R860W (Fig 1C) or 80 nM ALC1^fl activated with PARP1/NAD+ (Fig S1C). It is filed as biochemical, Homo sapiens ALC1; Xenopus laevis histones.
Excerpt: cDNAs for ALC1 and PARP1 were of Homo sapiens origin. Histone proteins (recombinantly expressed in E. coli) were of Xenopus laevis origin. Cell lines as well as growth conditions are described in the Method Details.
Oligonucleotides used in this study were ordered from IDT (see Table S3). The ALC1^fl (16-879) construct contains the human ALC1 sequence and a 6xHis-tag, as previously published ([Lehmann et al., 2017]). All point mutations were generated by PCR-based site-directed mutagenesis. The plasmid for human PARP1 (1-1014) with an N-terminal 6xHis-tag was a kind gift from John M. Pascal ([Langelier et al., 2017]).
as §1, with “construct).” for “construct). All constructs were 5’-labeled with Cy5 on the short linker end. The constructs for single-molecule experiments additionally featured a biotin on the long linker end.”

With “EKASQEGRSLRNKGSVLIPGL [ALC1^RLS peptide, N-terminal regulatory linker segment (residues 604–624) of ALC1, unlabeled]”, in assay [1], the “effect on fluorescence anisotropy of pre-formed LANA-TAMRA peptide-nucleosome complex” value is listed as “caused a decrease in its fluorescence anisotropy in a dose-dependent manner”.
Take `CC[C@H](C)[C@H](NC(=O)[C@H](CC(C)C)NC(=O)[C@@H](NC(=O)[C@H](CO)NC(=O)CNC(=O)[C@H](CCCCN)NC(=O)[C@H](CC(N)=O)NC(=O)[C@H](CCCNC(=N)N)NC(=O)[C@H](CC(C)C)NC(=O)[C@H](CO)NC(=O)[C@H](CCCNC(=N)N)NC(=O)CNC(=O)[C@H](CCC(=O)O)NC(=O)[C@H](CCC(N)=O)NC(=O)[C@H](CO)NC(=O)[C@H](C)NC(=O)[C@H](CCCCN)NC(=O)[C@@H](N)CCC(=O)O)C(C)C)C(=O)N1CCC[C@H]1C(=O)NCC(=O)N[C@@H](CC(C)C)C(=O)N[C@@H](CCCCNC(=O)c1ccc2c(c1)C(=O)OC21c2ccc(N(C)C)cc2Oc2cc(N(C)C)ccc21)C(=O)O` [ALC1^RLS-TAMRA]: the “affinity for nucleosomes with AP mutations on both H2A/H2B dimers” value in assay [2] is “substantially reduced affinity”.
For the molecule “MAPPGMRLRSGRSTGAPLTRGS [LANA peptide, peptide derived from the latency-associated nuclear antigen (LANA) of Kaposi's sarcoma-associated herpesvirus, reference compound]”, the “effect on ALC1-catalyzed remodeling” value in assay [3] is on record as “completely abrogated ALC1-catalyzed remodeling”.

Source of the values: article PMC7116876, “Mechanistic Insights into Regulation of the ALC1 Remodeler by the Nucleosome Acidic Patch” (Cell reports, 2020).
